Results on 13 compounds are retold here after patent publication US20210221832A1, “SUBSTITUTED PYRIDOINDOLES FOR THE TREATMENT AND PROPHYLAXIS OF BACTERIAL INFECTION” (Hoffmann-La Roche Inc., priority 2018, published 2021).

Molecules are shown by their SMILES. Converted amounts (≈) assume the structure as drawn. Bounds are passed on as bounds.

The nature of the data set: Lyophilisation Solubility Assay (LYSA). Format: physicochemical. The following applies: aqueous buffer, thermodynamic from solid; 0.05 M phosphate buffer, pH 6.5. As to the method:
The solubility of compounds of present invention was assessed by LYSA assay. Samples were prepared in duplicate from 10 mM DMSO stock solutions (20 μL) diluted in 30 μL pure DMSO. After evaporation of DMSO with a centrifugal vacuum evaporator, the residue was dissolved in 0.05 M phosphate buffer (150 μL, pH 6.5), which was stirred for one hour and shook for two hours. After one night, the solution was filtered using a microtiter filter plate. Then the filtrate and its 1/10 dilution were analyzed by HPLC-UV. In addition, a four-point calibration curve was prepared from the 10 mM stock solutions and used for the solubility determination of the compounds.
The compound `CN1C[C@@H]2CCN(c3c(-c4cnc5c(c4)c(=O)c(C(=O)O)cn5C)cnc4[nH]c5c(N(C)C(=O)OCOP(=O)(O)O)cc(F)c(C#N)c5c34)[C@@H]2C1` [Example 1.01, 6-[5-Cyano-6-fluoro-8-[methyl(phosphonooxymethoxycarbonyl)amino]-4-[(3aS,6aS)-5-methyl-2,3,3a,4,6,6a-hexahydropyrrolo[2,3-c]pyrrol-1-yl]-9H-pyrido[2,3-b]indol-3-yl]-1-methyl-4-oxo-1,8-naphthyridine-3-carboxylic acid] returned a solubility of over 595 µg/mL.

In turn, `CNc1cc(F)c(F)c2c1[nH]c1ncc(-c3ccc4ccc(C(=O)OCCOC(=O)[C@@H](N)C(C)C)c(=O)n4c3)c(N3CC[C@H]4CN(C)C[C@H]43)c12` [Example 1.37, 2-[(2S)-2-Amino-3-methyl-butanoyl]oxyethyl 7-[5,6-difluoro-8-(methylamino)-4-[(3aS,6aS)-5-methyl-2,3,3a,4,6,6a-hexahydropyrrolo[2,3-c]pyrrol-1-yl]-9H-pyrido[2,3-b]indol-3-yl]-4-oxo-quinolizine-3-carboxylate] displayed a solubility of 315 µg/mL (≈ 458 µM).

`CNc1cc(F)c(F)c2c3c(N4CC[C@H]5CN(C)C[C@H]54)c(-c4ccc5ccc(C(=O)O)c(=O)n5c4)cn(COP(=O)(O)O)c-3nc12` [Example 1.36, 7-[5,6-Difluoro-8-(methylamino)-1-(phosphonooxymethyl)-4-[(3aS,6aS)-5-methyl-2,3,3a,4,6,6a-hexahydropyrrolo[2,3-c]pyrrol-1-yl]pyrido[2,3-b]indol-3-yl]-4-oxo-quinolizine-3-carboxylic acid] returned a solubility of over 1000 µg/mL.

Regarding `CN1C[C@@H]2CCN(c3c(-c4ccc5ccc(C(=O)O)c(=O)n5c4)cnc4[nH]c5c(N(C)C(=O)OCOP(=O)(O)O)cc(F)c(F)c5c34)[C@@H]2C1` [Example 1.32, 7-[5,6-Difluoro-8-[methyl(phosphonooxymethoxycarbonyl)amino]-4-[(3aS,6aS)-5-methyl-2,3,3a,4,6,6a-hexahydropyrrolo[2,3-c]pyrrol-1-yl]-9H-pyrido[2,3-b]indol-3-yl]-4-oxo-quinolizine-3-carboxylic acid], the solubility was over 875 µg/mL.

`CN1C[C@@H]2CCN(c3c(-c4cnc5c(c4)c(=O)c(C(=O)O)cn5C)cnc4[nH]c5c(N(C)C(=O)OCOC(=O)/C=C/C(=O)O)cc(F)c(F)c5c34)[C@@H]2C1` [Example 1.28, 6-[5,6-Difluoro-8-[methyl-[[(E)-3-carboxyprop-2-enoyl]oxymethoxycarbonyl]amino]-4-[(3aS,6aS)-5-methyl-2,3,3a,4,6,6a-hexahydropyrrolo[2,3-c]pyrrol-1-yl]-9H-pyrido[2,3-b]indol-3-yl]-1-methyl-4-oxo-1,8-naphthyridine-3-carboxylic acid] displayed a solubility of over 945 µg/mL.

In turn, `CN1C[C@@H]2CCN(c3c(-c4cnc5c(c4)c(=O)c(C(=O)O)cn5C)cnc4[nH]c5c(N(C)S(=O)(=O)O)cc(F)c(F)c5c34)[C@@H]2C1` [Example 1.27, 6-[5,6-Difluoro-8-[methyl(sulfo)amino]-4-[(3aS,6aS)-5-methyl-2,3,3a,4,6,6a-hexahydropyrrolo[2,3-c]pyrrol-1-yl]-9H-pyrido[2,3-b]indol-3-yl]-1-methyl-4-oxo-1,8-naphthyridine-3-carboxylic acid] had a solubility of over 685 µg/mL.

On to `CN1C[C@@H]2CCN(c3c(-c4ccc5ccc(C(=O)O)c(=O)n5c4)cnc4[nH]c5c(N(C)C(=O)OCOC(=O)/C=C/C(=O)O)cc(F)c(F)c5c34)[C@@H]2C1` [Example 1.33, 7-[5,6-Difluoro-8-[methyl-[[(E)-3-carboxyprop-2-enoyl]oxymethoxycarbonyl]amino]-4-[(3aS,6aS)-5-methyl-2,3,3a,4,6,6a-hexahydropyrrolo[2,3-c]pyrrol-1-yl]-9H-pyrido[2,3-b]indol-3-yl]-4-oxo-quinolizine-3-carboxylic acid], for which the solubility was 680 µg/mL (≈ 949 µM).

Turning to `CN1C[C@@H]2CCN(c3c(-c4cnc5c(c4)c(=O)c(C(=O)O)cn5C)cnc4[nH]c5c(N(C)C(=O)OCOP(=O)(O)O)cc(F)c(F)c5c34)[C@@H]2C1` [Example 1.43, 6-[5,6-Difluoro-8-[methyl(phosphonooxymethoxycarbonyl)amino]-4-[(3aS,6aS)-5-methyl-2,3,3a,4,6,6a-hexahydropyrrolo[2,3-c]pyrrol-1-yl]-9H-pyrido[2,3-b]indol-3-yl]-1-methyl-4-oxo-1,8-naphthyridine-3-carboxylic acid], the solubility amounted to 595 µg/mL (≈ 834 µM).

With `CN1C[C@@H]2CCN(c3c(-c4cnc5c(c4)c(=O)c(C(=O)O)cn5C)cnc4[nH]c5c(N(C)C=O)cc(F)c(C#N)c5c34)[C@@H]2C1` [Example 1.03, 6-[5-Cyano-6-fluoro-8-[formyl(methyl)amino]-4-[(3aS,6aS)-5-methyl-2,3,3a,4,6,6a-hexahydropyrrolo[2,3-c]pyrrol-1-yl]-9H-pyrido[2,3-b]indol-3-yl]-1-methyl-4-oxo-1,8-naphthyridine-3-carboxylic acid], the solubility is over 730 µg/mL.

`CN1C[C@@H]2CCN(c3c(-c4ccc5ccc(C(=O)O)c(=O)n5c4)cnc4[nH]c5c(N(C)C(=O)CNC(=O)CN)cc(F)c(F)c5c34)[C@@H]2C1` [Example 1.35, 7-[8-[[2-[(2-Aminoacetyl)amino]acetyl]-methyl-amino]-5,6-difluoro-4-[(3aS,6aS)-5-methyl-2,3,3a,4,6,6a-hexahydropyrrolo[2,3-c]pyrrol-1-yl]-9H-pyrido[2,3-b]indol-3-yl]-4-oxo-quinolizine-3-carboxylic acid]: the solubility is over 915 µg/mL.

In the case of `CNc1cc(F)c(C#N)c2c1[nH]c1ncc(-c3cnc4c(c3)c(=O)c(C(=O)O)cn4C)c(N3CC[C@H]4C[N+](C)(COP(=O)(O)O)C[C@H]43)c12` (stereo partly drawn) [Example 1.07, 6-[5-Cyano-6-fluoro-8-(methylamino)-4-[(3aS,6aS)-5-methyl-5-(phosphonooxymethyl)-2,3,3a,4,6,6a-hexahydropyrrolo[2,3-c]pyrrol-5-ium-1-yl]-9H-pyrido[2,3-b]indol-3-yl]-1-methyl-4-oxo-1,8-naphthyridine-3-carboxylic acid], the solubility was over 1060 µg/mL.

On to `CN1C[C@@H]2CCN(c3c(-c4ccc5ccc(C(=O)O)c(=O)n5c4)cnc4[nH]c5c(N(C)C(=O)CNC(=O)CNC(=O)CN)cc(F)c(F)c5c34)[C@@H]2C1` [Example 1.34, 7-[8-[[2-[[2-[(2-Aminoacetyl)amino]acetyl]amino]acetyl]-methyl-amino]-5,6-difluoro-4-[(3aS,6aS)-5-methyl-2,3,3a,4,6,6a-hexahydropyrrolo[2,3-c]pyrrol-1-yl]-9H-pyrido[2,3-b]indol-3-yl]-4-oxo-quinolizine-3-carboxylic acid], for which the solubility was over 930 µg/mL.

For the compound `CN1C[C@@H]2CCN(c3c(-c4cnc5c(c4)c(=O)c(C(=O)O)cn5C)cnc4[nH]c5c(N(C)C=O)cc(F)c(F)c5c34)[C@@H]2C1` [Example 1.26, 6-[5,6-Difluoro-8-[formyl(methyl)amino]-4-[(3aS,6aS)-5-methyl-2,3,3a,4,6,6a-hexahydropyrrolo[2,3-c]pyrrol-1-yl]-9H-pyrido[2,3-b]indol-3-yl]-1-methyl-4-oxo-1,8-naphthyridine-3-carboxylic acid], the solubility is over 783 µg/mL.

What is called solubility is the dissolved amount per volume that the medium holds. Read a low solubility as little dissolved substance.
